Patent US10421774B2 (priority 2016, dated 2019)
Read-outs that look alike come from different tables or passages of the source.

What was measured:
Test in all cases: microbe, parasite or virus in culture
Type in all cases: cell-based, HIV-1
[1] = tested on: T332S/V362I/Pr R41G virus; settings: for EC50: Human immunodeficiency virus 1, MT2, read-out: T332S/V362I/pr41G EC50
Procedure: (§1) Cells. MT-2 cells and 293T cells were obtained from the NIH AIDS Research and Reference Reagent Program. Cell lines were sub-cultured twice a week in either RPMI 1640 (MT-2) or DMEM (293T, HeLa) media supplemented with 10% heat inactivated fetal bovine serum (FBS), 100 units/mL of penicillin G and 100 μg/mL of streptomycin. The DMEM medium was additionally supplemented with 10 mM HEPES buffer, pH 7.55, 2 mM L-glutamine and 0.25 μg/mL of amphotericin B.
(§2) Viruses. NLRepRluc virus contains the Renilla luciferase marker in place of the viral nef gene. The proviral plasmid pNLRepRluc was constructed at Bristol-Myers Squibb, starting from a proviral NL4-3 clone (B subtype) that was obtained from the NIH AIDS Research and Reference Reagent Program. The parental recombinant wild type (WT) virus (NLRepRlucP373S) was derived from NLRepRluc and contains the additional substitution of P373 for serine in Gag (within the SP1 spacer), the most common 373 variation in subtype B. Other recombinant viruses (A364V, V370A/ΔT371 and the “T3325 triple” (T332S/V362I+HIV-1 protease R41G)) were generated by site-directed mutagenesis of plasmid pNLRepRlucP373S to introduce those amino acid substitutions in Gag and protease. Recombinant virus DNA was then used to generate virus stocks by transfection of 293T cells (Lipofectamine PLUS kit, Invitrogen). Titers of virus stocks were determined using a luciferase assay (Dual-Luciferase® Reporter Assay System, Promega, Milwaukee, Wis., USA) endpoint.
(§3) Multiple cycle drug susceptibility assay. Pellets of MT-2 cells were infected with NLRepRlucP373S Gag site-directed viruses, where initial inocula of the reporter strains were normalized using equivalent endpoint luciferase activity signals. Such cell-virus mixtures were resuspended in medium, incubated for 1-hour at 37° C./CO2, and added to compound containing 96-well plates at a final cell density of 10,000 cells per well. The test compounds were 3-fold serially diluted in 100% DMSO, and assayed at a final DMSO concentration of 1%. After 4-5 day incubation at 37° C./CO2, virus yields were determined by Renilla luciferase activity (Dual-Luciferase® Reporter Assay System, Promega). The endpoint luminescence was detected on a Wallac Trilux (PerkinElmer).
T332sN362I/Pr R41G (N14.3, B Clade) virus′ was obtained as follows: Selection for resistance of HIV-1 strain […] virus with the HIV maturation inhibitor (MI) compound
At passage 8 virus was harvested and sequenced.
(§4) All three recombinant viruses were used as described above in the HIV cell culture assay for the NL4-3 virus.

[2] = tested on: A364V site directed mutant virus; settings: for EC50: Human immunodeficiency virus 1, MT2, read-out: A364V EC50
Procedure: as §1, §2, §3
(§5) HIV-1 NL4-3 expressing Renilla luciferase gene was converted to the gag V370A/ΔT371 virus by site directed mutagenesis. A364V is a site directed mutant.
as §4

gag V370A/ΔT371 virus = settings: for EC50: Human immunodeficiency virus 1, MT2, read-out: V370A/ΔT371 EC50
Procedure: as §1, §2, §3, §5, §4

[3] = tested on: NLRepRlucP373S recombinant wild type (WT) virus
Procedure: as §1, §2, §3
(§6) The 50% inhibitory concentrations (EC50S) were calculated by using the exponential form of the median effect equation where Percent Inhibition=1/[1+(EC50/drug conc.^m], where m is a parameter that reflects the slope of the concentration-response curve. Background was taken as the residual signal observed upon inhibition at the highest concentration of a control protease inhibitor, NFV (3 μM).
as §6, with “The 90%” for “The 50%”, “concentrations (EC90S)” for “concentrations (EC50S)”, “where ECF=[(F/(100−F)]^1/H·EC50,” for “where Percent Inhibition=1/[1+(EC50/drug conc.^m],”, “where H” for “where m”

[4] = Human immunodeficiency virus 1, MT2, read-out: WT EC50

Work on `C=C(C)[C@@H]1CC[C@]2(NCCN3CCS(=O)(=O)CC3)CC[C@]3(C)[C@H](CC[C@@H]4[C@@]5(C)CC=C(C6=CC[C@](COc7ncccc7C(N)=O)(C(=O)O)CC6)C(C)(C)[C@@H]5CC[C@]43C)[C@@H]12` [Example 24, (R)-1-(((3-carbamoylpyridin-2-yl)oxy)methyl)-4-((1R,3aS,5aR,5bR,7aR,11aS,11bR,13aR,13bR)-3a-((2-(1,1-dioxidothiomorpholino)ethyl)amino)-5a,5b,8,8,11a-pentamethyl-1-(prop-1-en-2-yl)-2,3,3a,4,5,5a,5b,6,7,7a,8,11,11a,11 b,12,13,13a,13b-octadecahydro-1H-cyclopenta[a]chrysen-9-yl)cyclohex-3-ene-1-carboxylic acid] yielded an EC50 [1] of 12 nM, an EC50 [2] of 8 nM and an EC50 (gag V370A/ΔT371 virus) of 12 nM. The EC50 [3, 4] was 2 nM.
Work on `C=C(C)[C@@H]1CC[C@]2(NCCN3CCS(=O)(=O)CC3)CC[C@]3(C)[C@H](CC[C@@H]4[C@@]5(C)CC=C(C6=CC[C@@](COc7ncccc7C#N)(C(=O)O)CC6)C(C)(C)[C@@H]5CC[C@]43C)[C@@H]12` [Example 25, (S)-1-(((3-cyanopyridin-2-yl)oxy)methyl)-4-((1R,3aS,5aR,5bR,7aR,11aS,11bR,13aR,13bR)-3a-((2-(1,1-dioxidothiomorpholino)ethyl)amino)-5a,5b,8,8,11a-pentamethyl-1-(prop-1-en-2-yl)-2,3,3a,4,5,5a,5b,6,7,7a,8,11,11a,11b,12,13,13a,13b-octadecahydro-1H-cyclopenta[a]chrysen-9-yl)cyclohex-3-ene-1-carboxylic acid] yielded an EC50 [1] of 10 nM, an EC90 ([1]; Human immunodeficiency virus 1, read-out: T332S/V362I/prR41G EC90) of 21 nM and an EC50 [2] of 18 nM. The EC90 ([2]; Human immunodeficiency virus 1, read-out: A364V EC90) was 41 nM, the EC50 (gag V370A/ΔT371 virus) was 10 nM and the EC90 (gag V370A/ΔT371 virus; Human immunodeficiency virus 1, read-out: V370A/ΔT371 EC90) was 2 nM. For the same molecule, the EC50 [3, 4] was 2 nM and the EC50 ([3]; Human immunodeficiency virus 1, read-out: WT EC50) was 2 nM.
Molecule `C=C(C)[C@@H]1CC[C@]2(NCCN3CCS(=O)(=O)CC3)CC[C@]3(C)[C@H](CC[C@@H]4[C@@]5(C)CC=C(C6=CC[C@@](COc7ncccc7C(N)=O)(C(=O)O)CC6)C(C)(C)[C@@H]5CC[C@]43C)[C@@H]12` [Example 26, (S)-1-(((3-carbamoylpyridin-2-yl)oxy)methyl)-4-((1R,3aS,5aR,5bR,7aR,11aS,11bR,13aR,13bR)-3a-((2-(1,1-dioxidothiomorpholino)ethyl)amino)-5a,5b,8,8,11a-pentamethyl-1-(prop-1-en-2-yl)-2,3,3a,4,5,5a,5b,6,7,7a,8,11,11a,11b,12,13,13a,13b-octadecahydro-1H-cyclopenta[a]chrysen-9-yl)cyclohex-3-ene-1-carboxylic acid] has an EC50 [1] of 41 nM, an EC50 [2] of 28 nM and an EC50 (gag V370A/ΔT371 virus) of 41 nM. The EC50 [3, 4] was 5 nM.
For `C=C(C)[C@@H]1CC[C@]2(NCCN3CCS(=O)(=O)CC3)CC[C@]3(C)[C@H](CC[C@@H]4[C@@]5(C)CC=C(C6=CC[C@](COc7ncccc7C(=O)OC)(C(=O)O)CC6)C(C)(C)[C@@H]5CC[C@]43C)[C@@H]12` [Example 27], the EC50 [1] was under 50 nM, the EC50 [2] was under 50 nM and the EC50 (gag V370A/ΔT371 virus) was under 50 nM. It also gave an EC50 [3, 4] of under 50 nM.
Molecule `C=C(C)[C@@H]1CC[C@]2(NCCN3CCS(=O)(=O)CC3)CC[C@]3(C)[C@H](CC[C@@H]4[C@@]5(C)CC=C(C6=CC[C@@](COc7cccc(OC)n7)(C(=O)O)CC6)C(C)(C)[C@@H]5CC[C@]43C)[C@@H]12` [Example 28, (S)-4-((1R,3aS,5aR,5bR,7aR,11aS,11bR,13aR,13bR)-3a-((2-(1,1-dioxidothiomorpholino)ethyl)amino)-5a,5b,8,8,11a-pentamethyl-1-(prop-1-en-2-yl)-2,3,3a,4,5,5a,5b,6,7,7a,8,11,11a,11 b,12,13,13a,13b-octadecahydro-1H-cyclopenta[a]chrysen-9-yl)-1-(((6-methoxypyridin-2-yl)oxy)methyl)cyclohex-3-ene-1-carboxylic acid] has an EC50 [1] of 21 nM, an EC50 [2] of 21 nM and an EC50 (gag V370A/ΔT371 virus) of 21 nM. It also gave an EC50 [3, 4] of 3 nM.
`C=C(C)[C@@H]1CC[C@]2(NCCN3CCS(=O)(=O)CC3)CC[C@]3(C)[C@H](CC[C@@H]4[C@@]5(C)CC=C(C6=CC[C@@](COc7cccc(F)n7)(C(=O)O)CC6)C(C)(C)[C@@H]5CC[C@]43C)[C@@H]12` [Example 29, (S)-4-((1R,3aS,5aR,5bR,7aR,11aS,11bR,13aR,13bR)-3a-((2-(1,1-dioxidothiomorpholino)ethyl)amino)-5a,5b,8,8,11a-pentamethyl-1-(prop-1-en-2-yl)-2,3,3a,4,5,5a,5b,6,7,7a,8,11,11a,11 b,12,13,13a,13b-octadecahydro-1H-cyclopenta[a]chrysen-9-yl)-1-(((6-fluoropyridin-2-yl)oxy)methyl)cyclohex-3-ene-1-carboxylic acid] showed an EC50 [1] of 21 nM, an EC50 [2] of 5 nM and an EC50 (gag V370A/ΔT371 virus) of 21 nM. The EC50 [3, 4] was 5 nM.
With `C=C(C)[C@@H]1CC[C@]2(NCCN3CCS(=O)(=O)CC3)CC[C@]3(C)[C@H](CC[C@@H]4[C@@]5(C)CC=C(C6=CC[C@@](COc7cc(C(N)=O)ccn7)(C(=O)O)CC6)C(C)(C)[C@@H]5CC[C@]43C)[C@@H]12` [Example 30, (S)-1-(((4-carbamoylpyridin-2-yl)oxy)methyl)-4-((1R,3aS,5aR,5bR,7aR,11aS,11bR,13aR,13bR)-3a-((2-(1,1-dioxidothiomorpholino)ethyl)amino)-5a,5b,8,8,11a-pentamethyl-1-(prop-1-en-2-yl)-2,3,3a,4,5,5a,5b,6,7,7a,8,11,11a,11b,12,13,13a,13b-octadecahydro-1H-cyclopenta[a]chrysen-9-yl)cyclohex-3-ene-1-carboxylic acid] the EC50 [1] was under 50 nM, the EC50 [2] was under 50 nM and the EC50 (gag V370A/ΔT371 virus) was under 50 nM. The EC50 [3, 4] was under 50 nM.
For `C=C(C)[C@@H]1CC[C@]2(NCCN3CCS(=O)(=O)CC3)CC[C@]3(C)[C@H](CC[C@@H]4[C@@]5(C)CC=C(C6=CC[C@@](COc7ccccn7)(C(=O)O)CC6)C(C)(C)[C@@H]5CC[C@]43C)[C@@H]12` [Example 31, (S)-4-((1R,3aS,5aR,5bR,7aR,11aS,11bR,13aR,13bR)-3a-((2-(1,1-dioxidothiomorpholino)ethyl)amino)-5a,5b,8,8,11a-pentamethyl-1-(prop-1-en-2-yl)-2,3,3a,4,5,5a,5b,6,7,7a,8,11,11a,11 b,12,13,13a,13b-octadecahydro-1H-cyclopenta[a]chrysen-9-yl)-1-((pyridin-2-yloxy)methyl)cyclohex-3-ene-1-carboxylic acid], the EC50 [1] was 9 nM, the EC50 [2] was 6 nM and the EC50 (gag V370A/ΔT371 virus) was 9 nM. The EC50 [3, 4] was 2 nM.
`C=C(C)[C@@H]1CC[C@]2(NCCN3CCS(=O)(=O)CC3)CC[C@]3(C)[C@H](CC[C@@H]4[C@@]5(C)CC=C(C6=CC[C@@](COc7cnccn7)(C(=O)O)CC6)C(C)(C)[C@@H]5CC[C@]43C)[C@@H]12` [Example 32, (S)-4-((1R,3aS,5aR,5bR,7aR,11aS,11bR,13aR,13bR)-3a-((2-(1,1-dioxidothiomorpholino)ethyl)amino)-5a,5b,8,8,11a-pentamethyl-1-(prop-1-en-2-yl)-2,3,3a,4,5,5a,5b,6,7,7a,8,11,11a,11b,12,13,13a,13b-octadecahydro-1H-cyclopentatalchrysen-9-yl)-1-((pyrazin-2-yloxy)methyl)cyclohex-3-ene-1-carboxylic acid] was tested, and the EC50 [1] was under 50 nM, the EC50 [2] was under 50 nM and the EC50 (gag V370A/ΔT371 virus) was under 50 nM. It also gave an EC50 [3, 4] of under 50 nM.
